Assay results as given in US20100261766A1, “Phenyl-Oxetanyl-Derivatives” (priority 2007, published 2010).
pEC50: −log10 of the molar value.

How the values were obtained:
[1] = test system: experimental autoimmune encephalomyelitis (EAE); assay: Acute EAE model; assay type: in vivo, Lewis rats; conditions: 10 mg/kg b.i.d., oral gavage, days 0-13
[2] = target: S1P5 receptor (Homo sapiens, UniProt Q9H228); assay: S1P5 GTP[γ-35S] binding assay, membranes of CHO cells; assay type: biochemical; conditions: agonistic activity in vitro; read-out: S1P-5 GTPyS/EC50
Experimental: (§1) A. In Vitro: GPCR Activation Assay Measuring GTP [γ-^35S] Binding to Membranes Prepared from CHO Cells Expressing Human EDG Receptors
(§2) Serial dilutions of compounds (stock in 10 mM DMSO) are prepared by first diluting the compounds in DMSO (1:10) followed by a 1:20 dilution into assay buffer (50 mM HEPES, pH 7.4, 5 mM MgCl2, 1 mM CaCl2, 1% fatty acid-free BSA). S1P (1 mM in DMSO/HCl) is diluted directly into assay buffer. The desired amount of membranes (1-5 μg/well) is diluted with assay buffer containing 10 μM GDP, 25 μg/mL Saponin and 5 mg/mL WGA-SPA beads. 9 μL of pre-diluted compound is placed into the bottom of a 96-well deep-well plate. 440 μL of the membrane-WGA-SPA bead slurry is added and the plate stirred for 15 minutes. Then twice 210 μL are transferred each into a 96-well Optiplate containing 15 μL GTP [γ-^35S] (4 nM in assay buffer). After incubation at room temperature for 120 minutes under constant shaking the plates are centrifuged for 10 minutes at 1000 g to pellet the membrane-SPA beads slurry. Then the plates are measured in a TOPcount NXT. Eight different concentrations of compound are used to generate a concentration response curve (using two data points per concentration) and the corresponding EC50 value using the curve-fitting tool of GraphPad Prism.
For each membrane preparation, titration experiments are first run with S1P control to determine the optimal amount of membranes to be added per assay well.

[3] = test system: circulating lymphocytes; assay: Blood lymphocyte depletion in rats; assay type: in vivo, Lewis rats; conditions: for recovery of lymphocyte counts back to baseline: within 48 hours
Experimental: Measurement of circulating lymphocytes: Lewis rats (male, 6-12 weeks old) are orally administered with 0.1 to 5 mg/kg of compound (4 ml/kg vehicle, e.g. in max. 2% DMSO/max. 2% PEG200/water or 0.5% methyl cellulose). A vehicle group is included as negative control.
Blood is collected from the sublingual vein at baseline (0 h) and 2, 6, 24 and 48 hours after administration under short isoflurane anesthesia. Whole blood samples are subjected to hematology analysis. Peripheral lymphocyte counts are determined using an automated analyzer. Two to four rats are used to assess the lymphocyte counts of each dose.

[4] = target: T1, human S1P1 (EDG-1) receptor (Homo sapiens, UniProt P21453); assay: S1P1 (EDG-1) GTP[γ-35S] binding assay, membranes of CHO cells; assay type: biochemical; conditions: agonistic activity in vitro; read-out: S1P-1 GTPyS/EC50
T1 construct: c-myc (N); expressed in transfected cells
Experimental: as §1
S1P1 (EDG-1) GTP [γ-^35S] assay: Homogenized membranes are prepared from CHO cell clones stably expressing a human EDG-1 N-terminal c-myc tag. Cells are grown in large culture dishes (500 cm^2) to a confluence between 80 and 90%. The culture medium is removed and 20 mL ice-cold buffer A (10 mM HEPES, pH 7.4, 10 mM EDTA, complete protease inhibitor cocktail [1 tablet/50 mL]) added. The cells are harvested by scraping and the cell suspension centrifuged at 750×g for 10 min at 4° C. The pellet is resuspended in 10 mL ice-cold buffer B (20 mM HEPES, pH 7.4, 100 mM NaCl, 10 mM MgCl2, 1 mM EDTA). The cell suspension is homogenized on ice, using a Polytron homogenizer at 25000 rpm at three intervals of 20 seconds each. Then the homogenate is centrifuged at 26900×g for 30 min at 4° C. and the membrane protein pellet resuspended by vortexing in cold buffer B. The protein concentration is determined using the Bio Rad Protein Assay and human IgG as standard. The volume of the membrane protein suspension is adjusted to a final concentration of about 2 mg protein/mL. The solution is then once again homogenized (Polytron) on ice at 25000 rpm for 20 seconds before being aliquoted and stored at −80° C.
as §2

[5] = test system: experimental autoimmune uveitis (EAU); assay: S-antigen-induced experimental autoimmune uveitis (EAU); assay type: in vivo, Lewis rats; conditions: 3 and 10 mg/kg bid p.o., day 7 to day 18 post-immunization
[6] = test system: experimental autoimmune encephalomyelitis (EAE); assay: Chronic-progressive EAE model (therapeutic treatment); assay type: in vivo, DA rat; conditions: therapeutic treatment after peak of disease; from day 15 post-immunization (after 4 days of treatment) until end of experiment; scale 0-5

S1P5 receptor, sequence (Q9H228 whole entry): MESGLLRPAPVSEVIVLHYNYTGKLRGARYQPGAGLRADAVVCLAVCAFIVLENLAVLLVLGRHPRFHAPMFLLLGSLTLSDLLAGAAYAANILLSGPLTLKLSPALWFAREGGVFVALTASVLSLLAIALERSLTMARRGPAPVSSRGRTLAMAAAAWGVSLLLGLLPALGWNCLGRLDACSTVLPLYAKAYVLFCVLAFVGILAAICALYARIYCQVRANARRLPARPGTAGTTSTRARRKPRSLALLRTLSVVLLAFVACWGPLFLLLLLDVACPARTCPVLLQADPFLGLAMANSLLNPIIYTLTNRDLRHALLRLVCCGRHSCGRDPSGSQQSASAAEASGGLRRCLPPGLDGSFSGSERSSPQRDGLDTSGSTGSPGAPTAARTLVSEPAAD
T1 sequence (P21453 whole entry): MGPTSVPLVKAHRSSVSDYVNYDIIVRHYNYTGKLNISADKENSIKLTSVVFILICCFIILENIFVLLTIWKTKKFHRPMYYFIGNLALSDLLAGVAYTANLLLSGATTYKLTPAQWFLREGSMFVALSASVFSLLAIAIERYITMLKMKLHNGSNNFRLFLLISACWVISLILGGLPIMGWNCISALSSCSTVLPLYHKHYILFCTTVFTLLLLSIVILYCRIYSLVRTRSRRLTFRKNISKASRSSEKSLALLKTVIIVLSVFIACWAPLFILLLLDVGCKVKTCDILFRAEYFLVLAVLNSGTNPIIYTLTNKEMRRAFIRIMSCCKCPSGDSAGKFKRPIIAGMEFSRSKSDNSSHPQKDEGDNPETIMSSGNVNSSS

Compound	effect on disease symptoms in acute EAE [1]	pEC50 [2]	recovery of lymphocyte counts back to baseline ([3]; 1 mg/kg p.o.)	recovery of lymphocyte counts back to baseline ([3]; 5 mg/kg p.o.)	peripheral lymphocyte counts ([3]; 0.1 to 5 mg/kg p.o., Lewis rats)	time of maximal reduction of peripheral lymphocyte counts post-administration ([3]; 1 or 5 mg/kg p.o., Lewis rats) [h]	pEC50 [4]	protection from autoimmune uveitis [5]	clinical scores in chronic-progressive EAE [6]
CC(C)Oc1ccc(-c2nc(-c3ccc(C4(N)COC4)cc3)no2)cc1C#N [Example 1, 5-{3-[4-(3-Amino-oxetan-3-yl)-phenyl]-[1,2,4]oxadiazol-5-yl}-2-iso-propoxy-benzonitrile]	prevention of disease symptoms	7.05	fully	partially recover back to baseline	dose-dependent reduction	6	8.00	dose-dependent protection from autoimmune uveitis	< 0.5
CC(C)Oc1ccc(-c2nc(-c3ccc(C4(O)COC4)cc3)no2)cc1C#N [Example 2]	–	7.52	–	–	–	–	8.22	–	–
CC(=O)c1cc(-c2nc(-c3ccc(C4(N)COC4)cc3)no2)ccc1OC(C)C [Example 3]	–	6.74	–	–	–	–	7.89	–	–
CCOc1ccc(-c2nc(-c3ccc(C4(N)COC4)cc3)no2)cc1C#N [Example 4]	–	6.52	–	–	–	–	7.77	–	–
CC(=O)c1cc(-c2nc(-c3ccc(C4(O)COC4)cc3)no2)ccc1OC(C)C [Example 5]	–	6.51	–	–	–	–	7.60	–	–
CCOc1ccc(-c2nc(-c3ccc(C4(O)COC4)cc3)no2)cc1C#N [Example 6, 5-{3-[4-(3-Hydroxy-oxetan-3-yl)-phenyl]-[1,2,4]oxadiazol-5-yl}-2-ethoxy-benzonitrile]	–	6.55	–	–	–	–	7.54	–	–
